Measured values reported in patent publication EP1095657A2, “Compositions for the regulation of cytokine activity” (priority 1992, dated 1994).
Marks after values point to notes of the source that are not given here.

Assays:
[1] = tested on: adjuvant arthritis in Lewis rats; experiment: Adjuvant arthritis (AA) in rats; assay type: in vivo; conditions: s.c. weekly from 1 day before induction; day 24; dose not given
ICAM-1 = experiment: TNF-α-induced expression of adhesion molecules by endothelial cells (ELISA); conditions: 1 h pretreatment of EC, TNFα alone 2.2±0.2
[2] = tested on: experimental DTH reaction in mice; experiment: In vivo bioassay of inhibition of experimental DTH reactivity (oxazolone ear swelling); set-up: species or system mice (BALB/c or CD1); conditions: for "R" value: inhibitory, 0 = no effect; for DTH Response: at the dose giving Inhmax; for Dose: dose giving Inhmax
Protocol: Groups of inbred BALB/c (Jackson Laboratories, Bar Harbor, ME) or of outbred CD1 (Weizmann Institute Animal Breeding Center, Rehovot, Israel) mice are sensitized on the shaved abdominal skin with 100 µl of 2% oxazolone (OX) in acetone/olive oil (4/1, v/v) applied topically. DTH sensitivity is elicited 5 days later as follows: mice are challenged with 20 µl of 0.5% OX (10 µl administered topically to each side of the ear) in acetone/olive oil. A constant area of the ear is measured immediately before challenge and 24 and 48 h later with a Mitutoyo engineer's micrometer. The individual measuring ear swelling is blinded to the identity of the groups of mice. The increment (△) of ear swelling is expressed as the mean in units of 10^-2 mm or 10^-4 inch (+SE) depending on the micrometer that is used. Percent inhibition is calculated as follows: %Inhibition= 1-((Treated-negative control)/(positive control-negative control)) [formula]
Mice are treated with LMWH as in Example 5.1, injected the day before primary sensitization to OX. On the fifth day after sensitization to OX, the mice are challenged to induce a DTH reaction, as described above.
The positive control is the DTH reaction elicited in immunized mice in the absence of treatment with LMWH. The negative control is the background swelling produced by the antigen in naive (non-immunized) mice.
BALB/c mice (at least 5 mice per group) were sensitized on the shaved abdomen with 3% 4-ethoxymethylene-2-phenyl oxazolone (OX; BDH Chemicals, GB) in acetone/olive oil applied topically. DTH sensitivity was elicited 5 days later as follows. Mice were challenged with 0.5% OX in acetone/olive oil. The ear was measured immediately before challenge and 24 h later with Mitutoyo engineer's micrometer (Japan). The individual measuring the swelling of the ear was blinded to the identity of the groups of mice. To interfere with DTH response, the low molecular weight immuno-regulatory fractions, diluted in PBS, were administrated subcutaneously into the back of the treated mice at the indicated time schedules and concentrations. Treated mice were inspected during and after (>2 months) the treatment and no major side-effects were observed clinically.
In particular, CD1 mice (available from the Weizmann Institute Animal Breeding Center, Rehovot, Israel), 4-12 mice per group, were treated as described in Section 5.2 or 6.8.

[3] = tested on: LPS-induced inflammation of the cornea; experiment: LPS-induced inflammation of the rat cornea; assay type: in vivo, Lewis rats
Protocol: LPS-induced inflammation of the cornea is TNF dependent, as shown by the work of Vanderhagen, C. and co-workers in the Netherlands, "Kinetics of Intraocular TNF and IL-6 in Endotoxin-Induced Uveitis in the Rat," submitted for publication. Using a 30-gauge needle, LPS (5 ng) was injected into the cornea of Lewis rats. After one day, separate groups of rats, 2 to a group (or 4 eyes to a group), were then injected subcutaneously with phosphate-buffered saline (0.05 ml) or H-1020 (at a dose of either 50 ng/rat or 200 ng/rat). The effects, if any, were scored as follows:
in which the sum of the points is used as the total score.

[4] = tested on: experimental DTH reaction in mice; experiment: In vivo bioassay of inhibition of experimental DTH reactivity (oxazolone ear swelling); set-up: species or system mice (BALB/c or CD1); conditions: inhibitory; administered orally
[5] = tested on: secretion of active TNF-α by activated human CD4+ T cells; experiment: Bioassay of TNF-α activity using human CD4+ T cells derived from PBLs (human PBL bioassay); conditions: concentration that gave the Inhmax or Augmax of the same line
ELAM-1 = experiment: TNF-α-induced expression of adhesion molecules by endothelial cells (ELISA); conditions: for Recombinant human TNFα-induced adhesion molecules (O.D 492): 1 h pretreatment of EC, TNFα alone 1.2±0.1

Question: Which “inhibition of the development of AA relative to control” value [1] does the source give for O=C(O)C1=C[C@H](O)[C@@H](O)[C@H](O[C@H]2[C@H](O)[C@@H](NS(=O)(=O)O)C(O)O[C@@H]2COS(=O)(=O)O)O1 (stereo partly drawn) [H-1020, 4-deoxy-4-en-iduronic acid-(α-1,4)-2-deoxy-2-N-sulfate-6-O-sulfateglucosamine] here?
Answer: about 30%

Question: And the “Recombinant human TNFα-induced adhesion molecules (O.D 492)” value (ICAM-1; 50 pg/ml, no TNFα 0.18±0.01)?
Answer: 1.2±0.1 O.D 492

Question: What about the “Recombinant human TNFα-induced adhesion molecules (O.D 492)” value (ICAM-1; 100 pg/ml) of the same compound?
Answer: 1.5±0.07 O.D 492

Question: And the Inhmax ([2]; CD1 mice, s.c.)?
Answer: 66%

Question: And the DTH ([2]; CD1 mice, s.c., at that dose, value in parentheses in the cell taken as positive control, not reported)?
Answer: 6.7 ± 1.1 (19.6 ± 1.2) 10^-2 mm

Question: What about the “"R" value” ([2]; CD1 mice, s.c.) of the same compound?
Answer: 1.65 x 10^5 % x (μg/gm)^-1

Question: And the “DTH Response” value ([2]; administered orally)?
Answer: 5.9 ± 0.9 10^-2mm

Question: And the “DTH Response” value ([2]; subcutaneous)?
Answer: 4.7 ± 0.7 10^-2mm

Question: What about the Dose ([2]; administered orally) of the same compound?
Answer: 0.128^a µg/gm mouse

Question: What about the Dose ([2]; subcutaneous) of the same compound?
Answer: 0.0005 µg/gm mouse

Question: What about the “"R" value” ([2]; maximum % inhibition of DTH divided by the dose giving it, s.c.) of the same compound?
Answer: 146,000 % x (µg/gm)^-1

Question: And the Inhmax ([2]; maximum inhibition of DTH, administered orally)?
Answer: 68%

Question: What about the Inhmax ([2]; maximum inhibition of DTH, subcutaneous) of the same compound?
Answer: 73%

Question: What about the “effect on the LPS-induced inflammation score, in words” value ([3]; 50 ng/rat s.c. one day after LPS) of the same compound?
Answer: effective to suppress the effects of the local LPS-induced inflammation

Question: And the “effect on the LPS-induced inflammation score, in words” value ([3]; 200 ng/rat s.c. one day after LPS)?
Answer: failed to provide a significant effect

Question: And the “"R" value” [4]?
Answer: 531 % x (µg/gm)^-1

Question: And the conc [5]?
Answer: 1 pg/mL

Question: And the “Recombinant human TNFα-induced adhesion molecules (O.D 492)” value (ELAM-1; 50 pg/ml, no TNFα 0.12±0.01)?
Answer: 0.7±0.05 O.D 492

Question: What about the “Recombinant human TNFα-induced adhesion molecules (O.D 492)” value (ELAM-1; 100 pg/ml) of the same compound?
Answer: 0.9±0.03 O.D 492

Question: What about the “inhibition of the up regulation of EC expression of adhesion molecules induced by TNF-α” value (ELAM-1; ELAM-1 and ICAM-1 not told apart in the sentence) of the same compound?
Answer: up to 50%
